Data as given in publication PMC6009935 (Journal of Enzyme Inhibition and Medicinal Chemistry, 2017).

Legend:
thermal nociception [1] = test: Hot plate test after i.c.v. injection; format: in vivo, mice; settings: i.c.v. 1, 5 and 10 µg/mouse; 15-90 min
Procedure: (§1) In vivo nociception tests
(§2) Male CD-1 mice (Harlan, Italy) weighting 25-30 g were used for all experiments. Mice were housed for at least 1 week before the experimental sessions in colony cages (7 mice in each cage) under standard light (from 7.00 a.m. to 7.00 p.m.), temperature (21±1°C), relative humidity (60±10%) with food and water available ad libitum. The research protocol was approved by the Service for Biotechnology and Animal Welfare of the Istituto Superiore di Sanità and authorized by the Italian Ministry of Health, according to Legislative Decree 26/14, which implemented the European Directive 2010/63/UE on laboratory animal protection in Italy. […]
(§3) In the case of hot plate test, the thermal nociception was assessed with a commercially available apparatus consisting in a metal plate 25x25 cm (Ugo Basile, Italy) heated to a constant temperature of 55±0.1°C, on which a plastic cylinder (20 cm diameter, 18 cm high) was placed. The time of latency (s) was recorded from the moment the animal was inserted inside the cylinder up to when it licked its paws or jerked them off the hot plate; jumped off the hot plate; the latency exceeded the cut-off time of 60 s. The baseline was calculated as mean of three readings recorded before testing at intervals of 15-30 min. The time course of latency was then determined at 15, 30, 45, 60, and 90 min after treatment. […]

thermal nociception [2] = test: Tail flick test after i.c.v. injection; format: in vivo, mice; settings: i.c.v. 1, 5 and 10 µg/mouse; 15-90 min
Procedure: as §1, §2, §3

Cc1c(C(=O)NC2CCN(C(=O)[C@H](Cc3ccccc3)NC(=O)CNC(=O)[C@@H](C)NC(=O)[C@@H](N)Cc3ccc(O)cc3)CC2)nn(-c2ccc(Cl)cc2Cl)c1-n1cccc1 [Compound 9]
behavioral response to thermal nociceptive stimuli, hot plate test (thermal nociception [1]): no difference in treatments | latency of the nociceptive response, tail flick test (thermal nociception [2]): absence of effect
